Laboratory results taken from patent publication US11759461B2, “Small molecule inhibitors of cancer stem cells and mesenchymal cancer types” (The Scripps Research Institute, priority 2017, dated 2023).
Each block holds one compound with its values, some of them ahead of it.

Columns and labels:
[1] = target: T1, recombinant full length VIM (Homo sapiens, UniProt P08670); assay: In vitro photo-affinity labeling of recombinant proteins with 1-PAP; format: binding
T1 construct: 1-PAP labels recombinant full length VIM in vitro
Experimental: To identify the relevant cellular target of Compound 1, we incubated live FOXC2-HMLER cells with 2.5 μM 1-PAP, as prepared in Example 5, for 15 minutes and subjected these cells to UV irradiation. A sample containing both 1-PAP and a 20-fold molar excess of free Compound 1 was used to distinguish specific labeling events.
VIM consists of a long rod domain, which forms a coiled coil in the presence of other VIM molecules, as well as head and tail domains. To identify which portion of the protein was the relevant site of 1-PAP labeling, we expressed these domains as GST fusion proteins. […] VIM is one of four type III intermediate filament proteins, whose members additionally include Peripherin, glial fibrillary acidic protein (GFAP), and Desmin, which share 59%, 61%, and 62% sequence similarity to VIM respectively (SIM alignment, ExPASy) (E. Fuchs et al., Annu. Rev. Biochem. 63 (1994) 345-382).

[2] = target: T2, VIM (Homo sapiens, UniProt P08670); assay: Immunofluorescent analysis of VIM filamentous architecture in HUVECs; format: cell-based; conditions: one-hour treatment
T2 construct: endogenous in cells; host or cells: FOXC2-HMLER

[3] = target: T2, VIM; assay: Western blotting / immunofluorescence of VIM protein status in FOXC2-HMLER cells; format: cell-based; conditions: FOXC2-HMLER cells, Western blotting
Experimental: Western blotting was performed essentially as described previously (M. J. Bollong et al. ACS Chem. Biol. 10 (2015) 2193-2198). Cells were collected by brief trypsinization and centrifugation at 500 g for 5 minutes. Cells were lysed by the addition of RIPA buffer with protease and phosphatase inhibitors (Roche). Lysates were incubated on ice for 30 minutes before eliminating insoluble protein content by centrifugation at 12,000 g for 5 minutes at 4° C. Protein concentrations were determined from absorbance values obtained by a Nanodrop instrument. Equal amounts of protein were then mixed with 2× loading buffer (100 mM TRIS-HCl, 1% SDS, 10% glycerol, 0.1% bromophenol blue 10%-mercaptoethanol) and exposed to 95° C. for 5 minutes. Protein was separated by SDS-PAGE using 4-12% Bis-Tris Gels (Invitrogen) and then transferred to PVDF membranes (Invitrogen) using semi-dry transfer. Membranes were blocked for 1 hour at room temperature in 5% non-fat dry milk in TBST (Tris buffered saline with 0.1% Tween 20). Membranes were incubated overnight with primary antibodies in blocking buffer overnight at the dilutions ranging from 1:500 to 1:2000. After 3 washes with TBST, membranes were then exposed to HRP-conjugated secondary antibodies (1:5000 in blocking buffer, Sigma) for one hour followed by one hour of additional washing with TBST. Relative protein content was visualized using film and SuperSignal West Dura Substrate. For VIM degradation blots, 20-60 μg of protein content was loaded per gel lane and the anti-VIM antibody V9 (ab8069) was used to blot for VIM protein content. Phospho-protein blots were performed as above with the exception that primary antibodies were incubated in 5% bovine serum albumin in TBST instead of milk.
We performed Western blotting analysis of FOXC2-HMLER cells treated for 24 hours with Compound 1 with commercially available antibodies targeting specific phosphorylated VIM species (P-S39, P-S56, P-S83).
In contrast, only a small fraction of cells undergoing mitosis stained positive for P-S56-VIM in DMSO-treated controls, consistent with previous reports identifying phosphorylation at S56 as a modification catalyzed by cyclin dependent kinase 1 (CDK1; FIG. 6) (T. Yamaguchi, T. et al., J. Cell Biol. 171 (2005) 431-436.

[4] = tested on: FOXC2-HMLER cells; assay: Confocal imaging of thymidine synced FOXC2-HMLER cells at metaphase; format: cell-based, human
From the text: Because Compound 1 induces a hyper-phosphorylated VIM phenotype, we sought to determine if Compound 1's engagement of VIM might interfere at an alternative stage of mitosis. We therefore performed time course confocal imaging studies of Compound 1 treated FOXC2-HMLER cells after their release from thymidine blocking-based cell cycle synchronization.
Compound 1 treatment also disrupted the ability of β-tubulin to faithfully form the fine spindle microtubules of the mitotic spindle, instead resulting in a compressed phenotype with radiating projections connecting unaligned chromosomes. To assess the uniqueness of this phenotype, we evaluated the metaphase phenotypes of other chemical inhibitors which have shown to alter mitotic progression. These included inhibitors of centromere-associated protein E (CENP-E, also called kinesin-7, GSK92395), kinesin spindle protein (KSP, also called Eg5, Ispinesib), polo like kinases (PLK1/2/3, BI2536), and aurora kinases (AURKA/B/C, VX-680).

[5] = tested on: FOXC2-HMLER cells; assay: Multinucleation of FOXC2-HMLER cells; format: cell-based, human; conditions: 250-500 nM, 24 hours
[6] = tested on: control HMLER cells; assay: Cell Titer Glo viability of control HMLER cells; format: cell-based; conditions: Homo sapiens; 72-hour incubation; read-out: control HMLER IC50
From the text: An engineered cancer cell line HMLER as an isogenic screening system was employed to identify compounds that are selectively toxic to the FOXC2 positive genotype. HMLER cells are derived from mammary epithelial cells (HMECs), but are virally transformed with the […] oncogene (G12V), human telomerase reverse transcriptase (hTERT), and SV40 large-T antigen (B. Elenbaas, B. et al. Genes Dev. 15 (2001) 50-65). Expression of these genes endows HMLER cells with functional immortality and tumorigenic potential at high seeding number (>10^6 cells; Hollier (2013)). […]
For high throughput screening, FOXC2-HMLER and HMLER cells were plated at 10^3 cells per well in white 384-well plates in 50 μL of MEGM medium (Lonza). […] After 72-hour incubation, 30 μL of a Cell Titer Glo solution (diluted 1:6 in water, Promega) was dispensed into each well and luminance values were recorded using an Envision plate reader. […]
More specifically, in the high throughput screening assay above, each cell line was plated at 1,000 cells per well in 384-well plates, treated for 72 hours with 2 μM of test compound, and the viability of each line was determined in parallel by Cell Titer Glo (Promega) luminance measurements. […]

[7] = tested on: FOXC2-expressing HMLER cells; assay: Cell Titer Glo viability of FOXC2-HMLER cells (high throughput screen and 10-point response); format: cell-based; conditions: Homo sapiens; 72-hour incubation; read-out: FOXC2-HMLER IC50
Outline: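 FOXC2-HMLER cells (HMLER run in parallel) seeded at 1,000 cells/well in MEGM, attached 1 h, then given compound in DMSO (2 μM in the screen). After 72 h, viability was read by Cell Titer Glo luminescence.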

T1 sequence (P08670 whole entry): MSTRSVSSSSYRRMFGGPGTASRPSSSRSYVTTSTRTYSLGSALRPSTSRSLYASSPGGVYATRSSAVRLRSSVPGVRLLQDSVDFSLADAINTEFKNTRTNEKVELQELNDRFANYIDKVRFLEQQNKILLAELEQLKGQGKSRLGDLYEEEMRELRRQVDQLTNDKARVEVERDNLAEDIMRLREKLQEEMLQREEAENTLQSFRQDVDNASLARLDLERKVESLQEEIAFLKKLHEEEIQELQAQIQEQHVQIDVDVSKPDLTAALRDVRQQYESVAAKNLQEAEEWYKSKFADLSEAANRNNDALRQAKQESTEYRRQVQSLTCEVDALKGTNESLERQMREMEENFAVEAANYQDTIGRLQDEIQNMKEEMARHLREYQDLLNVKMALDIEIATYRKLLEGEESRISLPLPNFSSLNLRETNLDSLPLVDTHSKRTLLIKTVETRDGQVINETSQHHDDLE
T2 sequence (P08670 whole entry): as above

labeling of type III intermediate filament proteins ([1]; VIM vs Peripherin, GFAP, Desmin recombinant preparations): labeled VIM exclusively
Compound: CC1(CC[C@H](NC(=O)CCOCCOCCNC(=O)CCCC[C@@H]2SC[C@@H]3NC(=O)N[C@@H]32)C(=O)NCCOCCOCCOc2cc(Cl)cc(N3CCN(c4cnnc5c(Cl)cccc45)CC3)c2)N=N1 [Compound 1-PAP, N—((S)-1-(3-chloro-5-(4-(8-chlorocinnolin-4-yl)piperazin-1-yl)phenoxy)-11-(2-(3-methyl-3H-diazirin-3-yl)ethyl)-10,13-dioxo-3,6,16,19-tetraoxa-9,12-diazahenicosan-21-yl)-5-((3aS,4S,6aR)-2-oxohexahydro-1H-thieno[3,4-d]imidazol-4-yl)pentanamide]
labeling of VIM domains expressed as GST fusion proteins ([1]; head, rod and tail domains): binds specifically and potently to the rod domain of VIM

lower molecular weight VIM degradation products [3]: dose-dependent accumulation
Compound: CC1=C(CO)C(=O)O[C@@H]([C@@H](C)[C@H]2CC[C@H]3[C@@H]4C[C@H]5O[C@]56[C@@H](O)C=CC(=O)[C@]6(C)[C@H]4CC[C@]23C)C1 [WIF-A, Withaferin A, reference compound]
VIM filamentous architecture in HUVECs [2]: promoted the destruction of fine VIM-containing filamentous structures
chromosome alignment to the metaphase plate [4]: unaligned chromosomes during metaphase
multinucleated FOXC2-HMLER cells [5]: significant increase

Compound: COc1cccc2c1C(=O)c1c(O)c3c(c(O)c1C2=O)C[C@@](O)(C(=O)CO)C[C@@H]3O[C@H]1C[C@H](N)[C@H](O)[C@H](C)O1 [doxorubicin, reference compound]
IC50 [6]: 267 nM
IC50 [7]: 447 nM
